{"source": "patent US10413583B2", "about": "“Synthetic substrates for enzymes that catalyze reactions of modified cysteines and related methods” (The University of Chicago, priority 2016, dated 2019)", "key": {"[1]": {"system": "HEK293T cells", "test": "Epifluorescent imaging of DPP-5 (and DPP-1, DPP-4) in HEK293T cells", "type": "cell-based, human", "procedure": "250,000 HEK293T cells/well, 120,000 HeLa cells/well, or 100,000 HepG2 cells/well were plated in 700 μL DMEM glutamax (10% FBS+1% P/S) into 4-well chambered imaging dish (D35C4-20-1.5-N, Cellvis, Mountain View, Calif., United States of America), which were precoated with 5 μg Poly-D-lysine (30-70 KDa, Alfa Aesar, Haverhill, Mass., United States of America) for 2 h. After 20-24 h, the media was replaced by 1 μM Hoechst 33342 and DMSO/5 μM PalmB in 400 μL DMEM glutamax. After 30 min of incubation at 37° C., the cells were washed with 400 μL of Live Cell Imaging Solution and replaced by 1 μM DPP-5 with DMSO or 5 μM of PalmB in Live Cell Imaging Solution. […] For data analysis, the average fluorescence intensity per image in each experimental condition was obtained by selecting ROI in Brightfield and applying that to the corresponding DPP-5 image, average background fluorescence intensity was subtracted and data was normalized to the average fluorescence intensity of the DMSO control. […]"}, "[2]": {"system": "HEPG2 cells", "test": "Epifluorescent imaging of DPP-5 and diacetyl rhodol in HepG2 cells (PalmB, ML348, ML349, palmitate)", "type": "cell-based, human", "settings": "for decrease in intensity of the signal from DPP-5: 10 μM inhibitor", "procedure": "250,000 HEK293T cells/well, 120,000 HeLa cells/well, or 100,000 HepG2 cells/well were plated in 700 μL DMEM glutamax (10% FBS+1% P/S) into 4-well chambered imaging dish (D35C4-20-1.5-N, Cellvis, Mountain View, Calif., United States of America), which were precoated with 5 μg Poly-D-lysine (30-70 KDa, Alfa Aesar, Haverhill, Mass., United States of America) for 2 h. After 20-24 h, the media was replaced by 1 μM Hoechst 33342 and DMSO/5 μM PalmB in 400 μL DMEM glutamax. After 30 min of incubation at 37° C., the cells were washed with 400 μL of Live Cell Imaging Solution and replaced by 1 μM DPP-5 with DMSO or 5 μM of PalmB in Live Cell Imaging Solution. After 20 min of incubation at 37° C., images were obtained on an inverted epifluorescence microscope (Olympus IX83; Olympus Corporation, Tokyo, Japan) attached with EMCCD camera (Photometrics EVOLVE™ Delta, Photometrics, Tucson, Ariz., United States of America) with 40× oil objective (N/A 1.3) for DPP-5 (excitation filter 500/20, dichroic chroma 89007, emission filter 535/30), Hoechst 33342 (excitation filter 402/15, emission filter 455/50, dichroic chroma 89013), and brightfield. Analyses were performed in ImageJ. For data analysis, the average fluorescence intensity per image in each experimental condition was obtained by selecting ROI in Brightfield and applying that to the corresponding DPP-5 image, average background fluorescence intensity was subtracted and data was normalized to the average fluorescence intensity of the DMSO control. Each experiment was repeated in at least two biological replicates with identical results.\n16,000 HepG2 cells/well were plated in 100 μL DMEM glutamax (10% fetal bovine serum (FBS)) into 4 wells of a 96-well chambered imaging dish (P96-1-N, Cellvis, Mountain View Calif., United States of America), which were precoated with 0.7 μg Poly-D-lysine (30-70 KDa, Alfa Aesar, Haverhill, Mass., United States of America) for 2 hrs. After 24 h, cells were washed with Live Cell Imaging Solution and replaced by 1 μM Hoechst 33342 and DMSO/10 μM ML348/10 μM ML349/10 μM of both ML348 and ML349 in 100 μL DMEM glutamax. After 30 min of incubation at 37° C., the cells were washed with 100 μL of Live Cell Imaging Solution and replaced by 1 μM DPP-5 in Live Cell Imaging Solution. After 20 min of incubation at 37° C., images were obtained on an inverted epifluorescence microscope (Leica DMi8; Leica Microsystems, Wetzlar, Germany) equipped with a camera (Hamamatsu Orca-Flash 4.0; Hamamatsu, Hamamatsu City, Japan) with 63× oil objective (N/A 1.4) and light source (Sutter Lamda XL, 300 W Xenon; Sutter Instrument, Novato, Calif., United States of America) for DPP-5 (YFP filter cube 1525306), Hoechst 33342 (DAPI filter cube), and brightfield using Leica LASX software (Leica Microsystems, Wetzlar, Germany). Analyses were performed in ImageJ. Each experiment was repeated in three biological replicates and 8-12 images were considered for plotting bar graphs for quantification. For detailed data analysis, the average fluorescence intensity per image in each experimental condition was obtained by selecting ROI in Brightfield and applying that to the corresponding DPP-5 image, average background fluorescence intensity was subtracted and data was normalized to the average fluorescence intensity of the control experiment. […] 250,000 HEK293T cells/well were plated in 700 μL DMEM glutamax (10% FBS+1% P/S) into three wells of a 4-well chambered imaging dish (D35C4-20-1.5-N, Cellvis, Mountain View, Calif., United States of America), which were precoated with 5 μg Poly-Dlysine (30-70 KDa, Alfa Aesar, Haverhill, Mass., United States of America) for 2 h. After 18 h, the media was replaced by 1 μM Hoechst 33342 in 400 μL DMEM glutamax. […] After 20 min of incubation at 37° C., images were obtained and analyzed as described above. […]"}, "[3]": {"settings": "5 μM PalmB pretreatment, 1 μM DPP-5"}}, "note": "Entries after “also recorded” stand apart in the source; their conditions may differ."}
{"smiles": "CCCCCCCCCC[C@@H]1C(=O)O[C@H]1CCc1ccc(OC)c(OC)c1", "note": "[PalmB, palmostatin B]", "values": [{"measurement": "fluorescent signal of DPP-5 abolished", "setting": "[1]; [3]", "value": "about 95%"}, {"measurement": "turn-on response of DPP-5 blocked", "setting": "[2]; [3]", "value": "more than 95%"}, {"measurement": "effect on DPP-5 signal in palmitate experiment", "setting": "[2]; 1% BSA with or without 1 mM palmitate, 5 μM PalmB", "value": "reduces the intensity of the DPP-5 signal"}]}
{"smiles": "COc1ccc(N2CCN(C(=O)c3cc4c(s3)-c3ccccc3S(=O)(=O)C4)CC2)cc1", "note": "[ML349]", "values": [{"measurement": "decrease in intensity of the signal from DPP-5", "setting": "[2]; 1 μM DPP-5", "value": "no change in signal"}]}
{"smiles": "CCCCCCCCCCCCCCCC(=O)SC[C@@H](C(=O)NC)N(C)C(=O)Oc1ccc2c(c1)Oc1cc(N3CCN(C(=O)CCC(=O)O)CC3)ccc1C21OC(=O)c2ccccc21", "note": "(stereo partly shown) [DPP-5]", "values": [{"measurement": "probe fluorescent signal in cells", "setting": "[1]; 1 μM probe for 20 minutes", "value": "bright, intracellular fluorescent signal; also recorded: robust fluorescent signal"}, {"measurement": "probe fluorescent signal in cells", "setting": "[2]; 1 μM probe for 20 minutes", "value": "robust intracellular fluorescent signal"}]}
{"smiles": "O=C(CN1CCN(C(=O)c2ccco2)CC1)Nc1cc(C(F)(F)F)ccc1Cl", "note": "[ML348]", "values": [{"measurement": "decrease in intensity of the signal from DPP-5", "setting": "[2]; 1 μM DPP-5", "value": "about 30%"}]}
